According to patent US8404869B2, “Phenanthrenequinone-based compound and pharmaceutical composition containing the same for the treatment or prevention of disease involving metabolic syndrome” (Mazence Inc., priority 2007, dated 2013):

Legend:
[1] = system: C57BL/6JL Lep ob/Lep ob mice; experiment: Blood biomarkers (lipid, glucose, enzyme levels) in ob/ob mice; format: in vivo; parameters: unit not given here; settings: after mixed-feed of 0.4% for 18 days
Method: (§1) 10-week-old C57BL/6JL Lep ob/Lep ob male mice having obesity characteristics and predisposition were purchased from Daehan Biolink Co., Ltd. (Chungchongbuk-do, Korea). Animals were raised in a breeding room maintained at a temperature of 23° C., 55% humidity, illumination of 300 to 500 lux, a 12-h light/dark (L/D) cycle, and ventilation of 10 to 18 times/hr. Animals were fed ad libitum pellets of Purina Rodent Laboratory Chow 5001 (purchased from Purina Mills Inc., St. Louis, Mo., USA) as a solid feed for experimental animals and tap water as drinking water. Mice were allowed to acclimate to new environment of the breeding room for two weeks and were then administered some pyrano-3,4-phenanthrenequinone or furano-3,4-naphthoquinone derivatives synthesized according to the present invention at mixed-feed of 0.4% for 18 days. Observation was made on changes in body weight, blood glucose and dietary intake, with respect to a time course of administration. After administration was complete, confirm changes in glucose, lipid and enzyme levels in blood.
(§2) For comparison, the same experiments were carried out for the subject (negative control group) to which the active ingredient was not administered, and subject (positive control group) to which Cryptotanshinone, extracted from Danshen by a method as set forth in Example 1 of the Korean Patent Application No. 2004-0116339 by the present applicant, was administered by the above-mentioned condition.

AMPK = experiment: Determination of AMPK activation in differentiated C2C12 myoblast cells (SAMS peptide, [γ-32P]ATP); format: cell-based; settings: C2C12 myoblast cells treated at 5 μg/ml; DMSO (0.5%) control = 1
Method: Myoblast cells, C2C12, were cultured in DMEM containing 10% bovine calf serum. When a cell density reached a range of about 85% to 90%, the culture medium was replaced with a medium containing 1% bovine calf serum to induce differentiation of cells. The thus-differentiated myoblast cells were treated with samples synthesized in Examples 1 through 16 at a concentration of 5 μg/ml, and compared with a control group. Enzymatic activity of AMPK was determined as follows. Firstly, C2C12 cells were lysed to obtain protein extracts and then ammonium sulfate was added to a final concentration of 30%, thereby precipitating proteins. Protein precipitates were dissolved in a buffer (62.5 mM Hepes, pH 7.2, 62.5 mM NaCl, 62.5 mM NaF, 1.25 mM Na pyrophosphate, 1.25 mM EDTA, 1 mM DTT, 0.1 mM PMSF, and 200 μM AMP). Thereafter, 200 μM SAMS peptide (HMRSAMSGLHLVKRR: the underlined serine residue is a phosphorylation site, as an AMPK phosphorylation site of acetyl-CoA carboxylase) and [γ-32P]ATP were added thereto and reactants were reacted for 10 minutes at 30° C. This was followed by spotting of the resulting reaction solution on p81 phosphocellulose paper. The p81 paper was washed with a 3% phosphoric acid solution and radioactivity thereof was measured. For each reaction condition, reactions involving no SAMS peptide were also conducted and basic values were subtracted from the thus-observed values.

[2] = system: C57BL/6JL Lep ob/Lep ob mice; experiment: Weight loss effects in obese mice (ob/ob); format: in vivo; settings: mixed-feed of 0.4% for 18 days; for change in vivo at 0.4 % in feed: Mus musculus, po, 432 h, (Final BW−Initial BW)/Initial BW×100, read-out: Increase in BW; for Final BW: ob/ob male mice
Method: as §1, §2
Herein, ‘Increase in BW’ is calculated as the following; Increase in BW=(Final BW−Initial BW)/Initial BW×100

Cc1ccc2ccc3c(c2c1)C(=O)C(=O)C1=C3OC(C)C1 (stereo not drawn) [Example 14, 2,8-Dimethyl-1,2-dihydro-phenanthro[1,2-b]furan-10,11-dione]
GOT [1]: 283.3
GPT [1]: 66.7
HDL chol [1]: 45.0
LDL chol [1]: 5.00
T. chol [1]: 115.0
glucose [1]: 146
triglyceride [1]: 88.3
AMPK fold (AMPK): 2.5 fold
change in vivo at 0.4 % in feed [2]: -7%
Final BW [2]: 48.7 ± 1.9 g

COc1ccc2ccc3c(c2c1)C(=O)C(=O)C1=C3OC(C)C1 (stereo not drawn) [Example 15, 8-Methoxy-2-methyl-1,2-dihydro-phenanthro[1,2-b]furan-10,11-dione]
GOT [1]: 312.5
GPT [1]: 206.7
HDL chol [1]: 46.0
LDL chol [1]: 8.75
T. chol [1]: 142.0
glucose [1]: 155
triglyceride [1]: 79.0
AMPK fold (AMPK): 2.2 fold
change in vivo at 0.4 % in feed [2]: -6.7%
Final BW [2]: 48.5 ± 1.5 g

Cc1cc2c(c3ccccc13)C(=O)C(=O)C1=C2OC(C)(C)CC1 [Example 16, 3,3,6-Trimethyl-2,3-dihydro-1H-4-oxa-chrysene-11,12-dione]
GOT [1]: 342.5
GPT [1]: 197.5
HDL chol [1]: 47.0
LDL chol [1]: 12.00
T. chol [1]: 140.0
glucose [1]: 135
triglyceride [1]: 82.3
AMPK fold (AMPK): 1.9 fold
change in vivo at 0.4 % in feed [2]: -7.2%
Final BW [2]: 48.0 ± 1.9 g
